Test results: publication PMC6350621, “Small-molecules that covalently react with a human prolyl hydroxylase – towards activity modulation and substrate capture” (Chemical Communications (Cambridge, England), 2018)

Columns and labels:
PHD2 = target: T1, PHD2 (Homo sapiens, UniProt Q9GZT9); experiment: Denaturing ESI-MS of crosslinking with PHD2; type: binding
T1 construct: PHD2_181–426 (hereafter PHD2); His6 (N, cleaved yes); made in house; host or cells: bacterial culture (2x TY, kanamycin, IPTG)
Protocol: In contrast to the likely imine adducts formed with 1/2, the PHD2·Fe·3 covalent adduct was stable to the acidic conditions of denaturing MS. […] The crosslinking could be fitted by a one-site decay function (R^2 = 0.99, GraphPad Prism), consistent with a quasi intramolecular reaction of the PHD2·Fe·3 non-covalent species to give a covalent adduct (Fig. S5, ESI ^†).
Fig. S7 Time-course analysis of crosslinking between PHD2 and 3. PHD2 (20 µM) was incubated (37 °C, 4 h) with FeSO4 (20 µM) and 3 (30 µM). Samples were taken at regular intervals, quenched by acidification and the ratio of covalent crosslinking analysed by ESI-MS under denaturing conditions. Above: overlaid deconvoluted mass spectra; Below: variation of crosslinking with time. Data represent mean intensities of repeats (n=3), error bars show 1 standard […]
Fig. S8 Temperature dependence of the rate of crosslinking of 3 with PHD2. PHD2 (20 µM) was incubated with equimolar Fe(II) and 3 in buffer (50 mM Tris, 150 mM NaCl, pH 7.5) at 4, 20 and 37 °C. The ratio of crosslinking after 1, 2, and 4 h was determined by ESI-MS under denaturing conditions (n = 2), error bars represent 1 standard deviation.
Fig. S9 Ratio of crosslinked PHD2.3 before evaluation of catalytic activity.
100 μM. FeSO4·7H2O was dissolved in 20 mM HCl at a concentration of 100 mM. This solution was then diluted with MilliQ purified water to give a final working concentration of 100 μM. The protein was mixed with the Fe(II) solution and the inhibitor solution to give final concentrations of 20 μM PHD2, 20 μM Fe(II), and 20 μM inhibitor. The resultant solution was incubated for the appropriate time (specified in the text) at 37 […]
(5 min or 20 min) at 37 °C. After incubation, the samples were immediately analysed by ESI-MS.
1.1.2 Denaturing mass spectrometry
Intact protein masses were obtaine by liquid chromatography-mass spectrometry (LC-MS) using a Waters LCT premier XE time-of-flight mass spectrometer interfaced with a Waters 1525u HPLC pump and Waters […]
The protein sample (10 µM, 5 µl) was injected onto a Chromolith FastGradient RP-18 2x50mm Monolithic reverse phase HPLC column and eluted at 0.4 ml.min-1 using a gradient system from Solvent A (water, 0.1 % (v/v) formic acid) to Solvent B (acetonitrile, 0.1 % (v/v) formic acid) according to the following conditions:
Time (Min) %A %B Flow Rate (ml.min-1)
The eluent was transferred directly to the mass spectrometer. The following MS parameters were used:
Capillary voltage – 3,000 V; Sample cone voltage – 50 V; Extraction cone voltage – 1V; Desolvation temperature – 250 °C; Source temperature – 100 °C; Cone gas flow – 100 l.hour-1; Desolvation gas flow (N2) – 830 l.hour-1. Data were processed with MassLynx™ v4.0 (Waters) and protein peaks were deconvoluted using the Maximum Entropy method (MaxEnt1).
1.1.3 Analysis of protein activity by peptide turnover assay using MALDI-MS detection2 PHD2 (20 µM), Fe(II) (20 µM) and the inhibitor (30 µM) in buffer (15 mM ammonium acetate, pH 7.5) were incubated for the appropriate time (specified in the text) at 37 °C. Subsequently, the enzyme (1.5 µL, final […]
ascorbate (1 mM), 2-oxoglutarate (100 µM) and the respective inhibitor (30 µM) in buffer (50 mM Tris, 150 mM NaCl). In the positive control no inhibitor was added. The resultant mixture was incubated at 37 °C and samples ([…]) were taken at regular intervals and quenched by addition of 1% (v/v) aqueous formic acid ([…]). Samples were analysed using a MALDI micro MX mass spectrometer (Waters) in the reflectron positive ion mode. Data were processed using MassLynx v4.0. The yield of crosslinking was determined by comparison of the signal intensities for crosslinked and unmodified protein.
1.1.4 Analysis of protein activity by peptide turnover assay using the AlphaScreen™ 3 The assay consisted of three parts: pre-incubation with inhibitor, the PHD2 hydroxylation reaction, and incubation with the AlphaScreen™ bead mix.

HIF-1α in HeLa cells = experiment: HIF-1α levels in HeLa cells by anti-HIF-1α immunoblotting; conditions: 50 or 250 µM, 6 h

T1 sequence (Q9GZT9 181-426): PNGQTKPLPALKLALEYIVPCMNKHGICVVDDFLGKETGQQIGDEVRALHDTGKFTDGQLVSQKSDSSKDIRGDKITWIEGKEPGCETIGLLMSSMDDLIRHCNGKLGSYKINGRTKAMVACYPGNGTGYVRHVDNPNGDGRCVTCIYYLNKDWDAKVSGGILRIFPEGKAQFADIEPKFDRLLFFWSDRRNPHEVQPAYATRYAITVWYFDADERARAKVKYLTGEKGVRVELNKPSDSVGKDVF

## C=CC(=O)Nc1cccc(C(=O)NCC(=O)O)c1O [compound 3]
PHD2; 4 °C
  conversion to crosslinked adduct at 4 °C: little conversion
PHD2; PHD2 pre-incubated with compound 0 h
  extent of crosslinking, 0 h pre-incubation: 0%
PHD2; PHD2 pre-incubated with compound 1 h
  extent of crosslinking, 1 h pre-incubation: 50%
PHD2; PHD2 pre-incubated with compound 2 h
  extent of crosslinking, 2 h pre-incubation: 66%
PHD2; PHD2 pre-incubated with compound 4 h
  extent of crosslinking, 4 h pre-incubation: 90%
PHD2; timecourse, 37 °C, 3 h, PHD2 20 µM, FeSO4 20 µM, compound 30 µM
  conversion to crosslinked PHD2·Fe·3 after 3 h: near complete conversion
HIF-1α in HeLa cells
  HIF-1α upregulation in HeLa cells: no upregulation of HIF-1α
